From patent publication US8367659B2, “Oxazinyl isoflavonoid compounds, medicaments and use” (Marshall Edwards, Inc., priority 2007, dated 2013) come the findings set out here.

The structures appear in SMILES notation.

One may read the EC50 as the concentration giving half of the maximal effect.

One test has as its system HPAC. Nature of the test: Anti-cancer activity, HPAC pancreatic cancer cells (MTT). Type of test: cell-based. The conditions noted are these: Homo sapiens, 120 h, 5 days.
Another test has as its system CP70. Nature of the test: Anti-cancer activity, CP70 ovarian cancer cells (MTT). To be noted: 120 h, 5 days. Format: cell-based.
Test [1] is described as follows: Free radical scavenging with DPPH. The conditions noted are these: DPPH, 20 minutes, absorbance 517 nm; Table 4; read-out: Free radical scavenging ability EC50. The procedure, abridged:
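Compounds reacted with DPPH in ethanol for 20 min, screened at 100 μM, and absorbance at 517 nm compared with a DPPH-ethanol blank. IC50 was taken as the concentration giving a 0.6 absorbance change, with 1.2 units representing total scavenging.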
Background: The DPPH test is a chemical assay of radical scavenging.

The test system of test [2] is Rabbit kidney (RK-13) cells. Nature of the test: Toxicity to normal cells, rabbit kidney (RK-13) cells. Type of test: cell-based. To be noted: Oryctolagus cuniculus, normal, non-transformed cells, read-out: IC50 μM, RK Rabbit Kidney. As to the method:
(§1) IC50 values were determined for each cell line. Cells were seeded in 96-well plates at an appropriate cell density as determined from growth kinetics analysis and cultured for 5 days in the absence and presence of the test compounds. Cell proliferation was assessed after the addition of 20 μl of 3-4,5 dimethylthiazol-2,5-diphenyl tetrazolium bromide (MTT, 2.5 mg/ml in PBS, Sigma) for 3-4 hrs at 37° C. according to manufacturer's instructions. IC50 values were calculated from semi-log plots of % of control proliferation on the y-axis against log dose on the x-axis.
(§2) The neonatal foreskin fibroblasts (NFF) were a gift from Dr. Peter Parsons (Queensland Institute of Medical Research). Rabbit kidney (RK-13) cells were obtained from Miller Whalley (Macquarie University). Both cell lines were cultured in RPMI supplemented with 10% FCS(CSL, Australia), penicillin (100 U/ml), streptomycin ([…]), L-glutamine (2 mM) and sodium bicarbonate (1.2 g/L), and cultured at 37° C. in a humidified atmosphere of 5% CO2. IC50 values were determined as described above.

Test [3] has as its system neonatal foreskin fibroblasts (NFF). Nature of the test: Toxicity to normal cells, neonatal foreskin fibroblasts. Format: cell-based. To be noted: Fibroblast; normal, non-transformed cells; read-out: IC50 μM, NFF Fibroblast. How it is done:
as §1, §2

A further test concerns MM200. As to the kind of experiment: Anti-cancer activity, MM200 melanoma cells (MTT). Type of test: cell-based. The conditions noted are these: 120 h; 5 days, MTT.
The test system of the next test is cancer cell lines. As to the kind of experiment: Anti-cancer activity, cancer cell lines tested as a group (MTT). Type of test: cell-based.
In test [4] the test system is TNFα synthesis in RAW 264.7 murine macrophages. Nature of the test: LPS-induced TNFα synthesis in RAW 264.7 murine macrophages. Type of test: cell-based, mouse. To be noted: 10 μM; relative to vehicle alone; FIG. 5. As to the method: The mouse macrophage cell line RAW 264.7 was cultured in DMEM supplemented with foetal calf serum (FCS), […] glutamine and 50 U/ml penicillin/streptomycin. Cells were treated with either test compound (in 0.025% DMSO) or vehicle alone, and added one hour before 50 ng/ml LPS. After incubation for 24 h, culture media was collected for PGE2 or TXB2 measurement by ELISA (Cayman Chemical), and TNFα measurement using an ELISA (Becton Dickinson). Test compounds were examined a concentration of 10 μM. […] Consequently, to assess the effect of test compounds on various analytes, cell viability was taken into consideration with the use of the formula: Actual effect of test compound=measured effect−(effect on cell viability×measured effect)

Test [5] concerns human umbilical vein smooth muscle cells (HUVSMC). Nature of the test: Proliferation of human umbilical vein smooth muscle cells (MTT). Type of test: cell-based. To be noted: 10 μM; 10% FCS, 5 days; FIG. 8. How it is done: The effect of test compounds on human umbilical vein smooth muscle cells (HUVSMC) was examined. Cells were seeded into 96 well plates at a low seeding rate of 1.6×10^3 cells per well, and allowed to attach for 24 hours. The cells were then washed twice with medium without FCS and incubated in medium without FCS for 20 hours to serum starve them. Analogue was prepared in medium without FCS at 20 μM and added to the plates and incubated for one hour. Final analogue concentration was therefore 10 μM. The cells were then stimulated by adding medium +20% FCS, to give a final FCS concentration of 10%. The cells were incubated until the control cells i.e. those with FCS and no compound, were just confluent (5 days). An MTT assay was performed, and difference in absorbance in analogue treated cells from the control was calculated using the formula: test/control*100−100. Results
The effect of test compounds on human umbilical vein smooth muscle cells (HUVSMC), was examined. Cells, tissue explants from a neonate (HRI—passage 2), were seeded into 96 well plates at 1×10^3 cells per well, and allowed to attach for 24 hours. They were then washed twice and incubated in medium without foetal calf serum (FCS) for 24-48 hours to serum-starve them. Test compounds were prepared in medium without FCS and added to the plates and incubated for one hour. Medium with FCS was added to give a final concentration of 10% and the plates incubated for 4-5 days until the controls were just confluent.

The subject of another test is HT29. Nature of the test: Anti-cancer activity, HT-29 colon adenocarcinoma cells (MTT). Format: cell-based. The conditions noted are these: Homo sapiens, HT-29, 120 h, 5 days, read-out: IC50 μM, HT29 Colorectal.
Test [6] concerns the target T1, GAL4-PPARγ fusion protein (Homo sapiens, UniProt P37231).
T1 construct: host or cells: HEK293 (human embryonic kidney), stably transfected
Nature of the test: PPARγ activity in transfected HEK293 cells (beta-lactamase reporter). Format: cell-based. The conditions noted are these: FIG. 13: 1 μM. In outline: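 HEK293 cells stably expressing GAL4-DBD/PPARγ-LBD fusion with beta-lactamase reporter, treated with compound at 1, 5 and 10 μM for 16-18 h. Beta-lactamase read via FRET substrate (2 h, room temperature), ex 409 nm, em 460/530 nm; background-subtracted emission ratio.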

Another test deals with MDA-MB-468. As to the kind of experiment: Anti-cancer activity, MDA-MB-468 breast cancer cells (MTT). Format: cell-based. To be noted: Homo sapiens, MDA-MB-468, 120 h, 5 days.
The subject of another test is NCI-H460. As to the kind of experiment: Anti-cancer activity, NCI-H460 large cell lung cancer cells (MTT). Type of test: cell-based. The conditions noted are these: Homo sapiens, NCI-H460, 120 h, 5 days, read-out: IC50 μM, NCI-H460 Lung (NSCLC).

T1 sequence (P37231 238-503 limits assumed): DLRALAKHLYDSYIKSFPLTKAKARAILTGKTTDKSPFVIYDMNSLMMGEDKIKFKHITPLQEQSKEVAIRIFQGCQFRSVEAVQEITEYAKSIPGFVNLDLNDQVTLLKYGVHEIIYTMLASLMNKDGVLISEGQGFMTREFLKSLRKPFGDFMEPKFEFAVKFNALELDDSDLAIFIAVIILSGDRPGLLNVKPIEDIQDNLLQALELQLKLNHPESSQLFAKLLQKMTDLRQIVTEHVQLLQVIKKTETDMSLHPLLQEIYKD
T1 sequence (P04386 1-147 partner limits assumed): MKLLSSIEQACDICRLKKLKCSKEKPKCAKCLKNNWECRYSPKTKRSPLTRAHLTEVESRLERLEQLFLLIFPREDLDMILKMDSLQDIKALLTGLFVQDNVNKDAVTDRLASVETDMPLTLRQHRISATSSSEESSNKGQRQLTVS

For the molecule `COCCCN1COc2cc3c(cc2C1)C=C(c1cccc(O)c1)CO3` [Compound 17, 3-(3-(3-Methoxypropyl)-2,3,4,8-tetrahydrochromeno[6,7-e][1,3]oxazin-7-yl)phenol], the IC50 in the test with HPAC is 5.3 µM; in the test with CP70, 4.5 µM; in test [2], 5.5 µM; in [3], 55.9 µM; in the test with MM200, 2.3 µM; with cancer cell lines (read-out: most potent activity against the respective cell lines tested), 1 to 5 µM. Moreover, the EC50 in test [1] amounted to 40 µM. Further, the “activity against CP70, HPAC and MM200 cell lines” value with cancer cell lines (CP70, HPAC and MM200) is “active”. In [4], the “mean change of LPS-induced TNFα synthesis” value was “greatest inhibition”. Further, in test [5], the “effect on proliferation of HUVSMCs induced by FCS” value is listed as “significantly inhibited the proliferation”.
In the case of `CCCN1COc2cc3c(cc2C1)C=C(c1ccc(O)cc1)C(CC)O3` (centres unmarked) [Compound 27, 4-(8-Ethyl-3-propyl-2,3,4,8-tetrahydrochromeno[6,7-e][1,3]oxazin-7-yl)phenol], the IC50 in the test on HPAC amounted to 12.4 ± 4 µM; in the test on CP70, 10.9 ± 1.5 µM; with HT29, 50.8 ± 1 µM; in test [2], 14.5 ± 1 µM; in test [3], 40.3 ± 1.2 µM; with MM200 it was 23.2 ± 1.1 µM. For the same molecule, the IC50 was 14.9 ± 1 µM in the test with MDA-MB-468 and 17.8 ± 1.1 µM in the test on NCI-H460. In addition, the EC50 in test [1] came to 26 µM. Also, the “PPARγ activation, increase in beta-lactamase activity over media only control” value in test [6] is “PPARγ agonist activity”.
